For data set [1], the system named is Plasmodium falciparum. Description: Antimalarial activity against chloroquine-sensitive asexual Plasmodium falciparum NF54 infected in human erythrocytes assessed as inhibition of parasite proliferation at 5 uM after 96 hrs by SYBR Green I fluorescence based assay relative to control. In kind it is functional. Conditions: NF54, 96 h.
Data set [2] concerns Plasmodium falciparum. Description: Antimalarial activity against chloroquine-sensitive asexual Plasmodium falciparum NF54 infected in human erythrocytes assessed as inhibition of parasite proliferation at 1 uM after 96 hrs by SYBR Green I fluorescence based assay relative to control. In kind it is functional. Conditions: NF54, 96 h.
Data set [3] has as its system Plasmodium falciparum. Description: Antimalarial activity against chloroquine-sensitive asexual Plasmodium falciparum NF54 infected in human erythrocytes assessed as inhibition of parasite proliferation at 100 to 500 nM after 96 hrs by SYBR Green I fluorescence based assay. In kind it is functional, organism-based.
Data set [4] relates to Plasmodium falciparum. Description: Antimalarial activity against chloroquine-sensitive asexual Plasmodium falciparum NF54 infected in human erythrocytes assessed as inhibition of parasite proliferation after 96 hrs by SYBR Green I fluorescence based assay. Particulars: NF54, 96 h. In kind it is functional, organism-based.
In data set [5] the test system is Plasmodium falciparum. Description: Antimalarial activity against multidrug resistant Plasmodium falciparum K1 infected in human erythrocytes assessed as inhibition of parasite proliferation after 96 hrs by SYBR Green I fluorescence based assay. In kind it is functional, organism-based. Particulars: K1, 96 h.
For data set [6], the system named is Plasmodium falciparum. Description: Antimalarial activity against multidrug resistant Plasmodium falciparum W2 infected in human erythrocytes assessed as inhibition of parasite proliferation after 96 hrs by SYBR Green I fluorescence based assay. In kind it is functional, organism-based. Particulars: W2, 96 h.
Data set [7] can be described thus: Resistance index, ratio of IC50 for multi-drug-resistant Plasmodium falciparum K1 infected in human erythrocytes to IC50 for chloroquine-sensitive asexual Plasmodium falciparum NF54 infected in human erythrocytes. The data set is classed as functional.
Data set [8] can be described thus: Resistance index, ratio of IC50 for multi-drug-resistant Plasmodium falciparum W2 infected in human erythrocytes to IC50 for chloroquine-sensitive asexual Plasmodium falciparum NF54 infected in human erythrocytes. The data set is classed as functional.
A short description of data set [9]: Cytotoxicity against human WI38 cells assessed as growth inhibition after 48 hrs by sulforhodamine B assay. The data set is classed as cell-based. Conditions: WI-38, 48 h.
The nature of data set [10]: Selectivity index, ratio of IC50 for human WI38 cells to IC50 chloroquine-sensitive asexual Plasmodium falciparum NF54 infected in human erythrocytes. Conditions: read-out: Ratio IC50. In kind it is toxicity, cell-based, WI-38.
The nature of data set [11]: Lipophilicity, log P of compound. The data set is classed as physicochemical. Particulars: octanol/water.
Data set [12] is described as follows: Acidic dissociation constant, pKa of compound. In kind it is physicochemical.
A short description of data set [13]: Solubility of compound in water. In kind it is physicochemical.

Values after ≈ are worked out from the molar mass of the structure shown. Active and inactive are the calls of the source. The calls are words filed in the database; no cut-off is given here.

With `CCCCCCCCCCOc1cc2c(=O)c(C(=O)NCCCn3ccnc3)c[nH]c2cc1OCC`, in the data set on Plasmodium falciparum [1], the inhibition (as a rule, the percentage by which the read-out fell short of the control) at 5 µM was above 50%. Further, the inhibition at 1 µM in the data set on Plasmodium falciparum [2] is above 70%.
On the same counts, the results for `CCCCCCCCCCOc1cc2c(=O)c(C(=O)NCCOC)c[nH]c2cc1OCC` are above 50% and above 70%.
On the same counts, the results for `CCCCCCCCCCOc1cc2c(=O)c(C(=O)OCC)cn(S(C)(=O)=O)c2cc1OCC` are above 50% and above 70%.
Take `CCCCCCCCCCOc1cc2c(=O)c(C(=O)NCc3ccc(F)cc3)c[nH]c2cc1OCC`: in the data set with Plasmodium falciparum [1], the inhibition at 5 µM is above 50%. The inhibition at 1 µM with Plasmodium falciparum [2] was above 70%. In the data set on Plasmodium falciparum [3], the inhibition entry was “Active”. Besides, the IC50 (commonly the midpoint of a concentration-inhibition curve) with Plasmodium falciparum [4] was 33.1 nM; with Plasmodium falciparum [5], 63.1 nM; in the data set with Plasmodium falciparum [6] it was 8.6 nM; in [9], above 100000 nM. The “Ratio IC50” value came to 1.9 in data set [7] and 0.2 in [8]. The selectivity ratio in [10] was above 3020.
For the compound `C[C@H]1[C@H](OC(=O)CCC(=O)O)O[C@@H]2O[C@@]3(C)CC[C@H]4[C@H](C)CC[C@@H]1[C@@]24OO3` [ARTESUNATE], the IC50 in the data set on Plasmodium falciparum [4] is 7.88 nM; in the data set on Plasmodium falciparum [5] it was 8.97 nM; in the data set on Plasmodium falciparum [6], 6.77 nM; in [9], above 100000 nM. For the same compound, the “Ratio IC50” value in data set [7] is 1.4; in data set [8] it was 0.8. For the same compound, the selectivity ratio in [10] is above 12700.
Turning to `CCCCCCCCCCOc1cc2c(=O)c(C(=O)OCC)cn(C(=O)CC)c2cc1OCC`, the inhibition at 5 µM with Plasmodium falciparum [1] was above 50%. Further, the inhibition at 1 µM with Plasmodium falciparum [2] was above 70%. The inhibition result with Plasmodium falciparum [3] was “Active”. Further, the IC50 was 15.4 nM in the data set on Plasmodium falciparum [4], 48.9 nM in the data set on Plasmodium falciparum [5], 11.5 nM with Plasmodium falciparum [6] and above 100000 nM in [9]. Further, the “Ratio IC50” value in [7] stood at 3.2; in data set [8], 0.8. Further, in data set [10], the selectivity ratio is above 6490.
On to `CCCCCCCCCCOc1cc2c(=O)c(C(=O)OCC)cn(C(=O)N3CCCCC3)c2cc1OCC`, for which, in the data set on Plasmodium falciparum [1], the inhibition at 5 µM was above 50%. The inhibition at 1 µM with Plasmodium falciparum [2] was above 70%. For the same compound, the inhibition result in the data set on Plasmodium falciparum [3] is “Active”. Also, the IC50 in the data set with Plasmodium falciparum [4] amounted to 18.3 nM; in the data set on Plasmodium falciparum [5] it was 89.1 nM; in the data set with Plasmodium falciparum [6] it was 28.2 nM; in [9] it was 8500 nM. Besides, the figures for the “Ratio IC50” value in [7] and in [8] were 4.9 and 1.5, respectively. For the same compound, the selectivity ratio in data set [10] was 465.
In the case of `CCCCCCCCCCOc1cc2c(=O)c(C(=O)NCc3ccco3)c[nH]c2cc1OCC`, the inhibition at 5 µM with Plasmodium falciparum [1] is above 50%. For the same compound, in the data set on Plasmodium falciparum [2], the inhibition at 1 µM is above 70%.
On the same counts, the results for `CCCCCCCCCCOc1cc2c(=O)c(C(=O)OCC)cn(C(=O)N(C)C)c2cc1OCC` are above 50% and above 70%.
In the case of `CCCCCCCCCCOc1cc2c(=O)c(C(=O)N3CCOCC3)cn(S(=O)(=O)C3CC3)c2cc1OCC`, the inhibition at 5 µM in the data set with Plasmodium falciparum [1] is above 50%. In the data set on Plasmodium falciparum [2], the inhibition at 1 µM was above 70%.
On the same counts, the results for `CCCCCCCCCCOc1cc2c(=O)c(C(=O)NCc3ccccc3F)c[nH]c2cc1OCC` are above 50% and above 70%.
`CCCCCCCCCCOc1cc2c(=O)c(C(=O)NCCOCCO)c[nH]c2cc1OCC`: in the data set with Plasmodium falciparum [1], the inhibition at 5 µM was above 50%. Moreover, the inhibition at 1 µM with Plasmodium falciparum [2] is above 70%. Also, the inhibition result with Plasmodium falciparum [3] is “Active”. For the same compound, the IC50 turned out to be 40.4 nM in the data set on Plasmodium falciparum [4], 64.8 nM in the data set with Plasmodium falciparum [5], 18.5 nM with Plasmodium falciparum [6] and 43900 nM in [9]. Moreover, the “Ratio IC50” value in data set [7] turned out to be 1.6; in data set [8], 0.5. Moreover, the selectivity ratio in [10] was found to be 1090.
With `CCCCCCCCCCOc1cc2c(=O)c(C(=O)N3CCOCC3)cn(C(C)=O)c2cc1OCC`, the inhibition at 5 µM in the data set with Plasmodium falciparum [1] is above 50%. The inhibition at 1 µM with Plasmodium falciparum [2] is above 70%.
Regarding `CC[C@H]1CN2CCc3cc(OC)c(OC)cc3[C@@H]2C[C@@H]1C[C@H]1NCCc2cc(OC)c(OC)cc21` [EMETINE], the IC50 in data set [9] was 50 nM.
On to `CCCCCCCCCCOc1cc2c(O)c(C(=O)OCC)cnc2cc1OCC` [DECOQUINATE], for which the inhibition at 5 µM in the data set with Plasmodium falciparum [1] was above 50%. Besides, the inhibition at 1 µM in the data set on Plasmodium falciparum [2] is above 70%. In addition, the inhibition entry in the data set with Plasmodium falciparum [3] is “Active”. Besides, the IC50 in the data set with Plasmodium falciparum [4] is 26.6 nM; in the data set on Plasmodium falciparum [5], 64.9 nM; with Plasmodium falciparum [6] it was 15.4 nM; in data set [9] it was above 100000 nM. Besides, the “Ratio IC50” value in data set [7] came out at 2.4; in data set [8], 0.6. Moreover, the selectivity ratio in [10] was above 3760. Moreover, the logP (commonly a log measure of how a compound divides between an organic and an aqueous phase) in data set [11] was 8.19. For the same compound, in [12], the pKa – broadly, the pH at which an ionisable group is half protonated – was 9.81. The concentration in solution in data set [13] (solubility) was 0.06 µg/mL (≈ 0.144 µM).
With `CO[C@H]1O[C@@H]2O[C@@]3(C)CC[C@H]4[C@H](C)CC[C@@H]([C@H]1C)[C@@]24OO3` [ARTEMETHER], the IC50 in the data set with Plasmodium falciparum [4] was 5.77 nM; in the data set on Plasmodium falciparum [5] it was 7.26 nM; with Plasmodium falciparum [6], 4.5 nM. Moreover, the “Ratio IC50” value in data set [7] is 1.3; in data set [8], 0.8.
For the compound `CCCCCCCCCCOc1cc2c(=O)c(C(=O)NCCN(C)C)c[nH]c2cc1OCC`, the inhibition at 5 µM in the data set on Plasmodium falciparum [1] is above 50%. Also, the inhibition at 1 µM in the data set on Plasmodium falciparum [2] is above 70%.
On to `CCCCCCCCCCOc1cc2c(=O)c(C(=O)OCC)cn(C(C)=O)c2cc1OCC`, for which the inhibition at 5 µM with Plasmodium falciparum [1] was above 50%. In the data set on Plasmodium falciparum [2], the inhibition at 1 µM was above 70%. In addition, the inhibition result in the data set with Plasmodium falciparum [3] was “Active”. The IC50 with Plasmodium falciparum [4] is 4.9 nM; in the data set with Plasmodium falciparum [5], 12 nM; in the data set with Plasmodium falciparum [6], 8.5 nM; in data set [9], above 100000 nM. The “Ratio IC50” value in data set [7] is given as 2.5; in data set [8], 1.7. For the same compound, the selectivity ratio in data set [10] is above 20400.
In the case of `CCCCCCCCCCOc1cc2c(=O)c(C(=O)OCC)cn(S(=O)(=O)C3CC3)c2cc1OCC`, the inhibition at 5 µM in the data set with Plasmodium falciparum [1] was above 50%. Further, in the data set on Plasmodium falciparum [2], the inhibition at 1 µM is above 70%.

For the origin of these results see ChEMBL document CHEMBL3808317, “Straightforward conversion of decoquinate into inexpensive tractable new derivatives with significant antimalarial activities” (Bioorg Med Chem Lett, 2016).
